Measured values published in patent US10588934B2, “Opioid peptide” (priority 2014, dated 2020).
Like-named read-outs stand apart in the source and are kept apart here. Ends that are not written are not given here.

Legend:
Swiss mice [1] = experiment: Tail flick (tail removal) nociception test; type: in vivo, Mus musculus; details: for activity profile of the group given substance+naloxone compared with saline: with serial naloxone 4 mg/kg
Description: (§1) In vivo analyzes: Tests were carried out on Swiss mice of the Mus musculus species, in which nociception tests (hot plate and tail removal test) were used according to Le Bars et al. (2001). Injections were administered via intraperitoneal (IP). Doses were based upon dose and molaridade of the morphine (10 mg/kg animal).
(§2) FIGS. 1,2,3 and 4 represent the raw data obtained from the experiments after statistical analysis. The symbols (*, **, #) indicate the beginning of the statistically significant activity (S) or the statistically non-significant differences (NS). Analyzes of opioid activity were performed in two classical models of studies for this activity: Tail Flick or Hot Plate test.

Swiss mice [2] = type: in vivo, Mus musculus
Description: as §1, §2

trypsin = details: 37° C., 15 minutes to 4 hours, MALDI
Description: Representation of the fragments obtained at the different incubation times with the enzyme trypsin. Analysis performed by mass spectrometry, MALDI. The first spectrum, marked with the letter A, refers to the time of 15 minutes; The second spectrum marked with the letter B indicates the time of 30 minutes; C indicates the time of 1 hour; D indicates the time of 2 hours; E indicates the time of 4 hours and, finally, F is the control peptide (SEQ ID NO: 2).

SEQ ID NO: 1: opioid peptide of formula TyrProPhe-X1-TrpGlyGly-X2-ProPro (X1 Gly or Lys; X2 Ile or Val); exact sequence not printed in the text (YPFGWGGIPP)
cumulative effect over time (area under the curve) (Swiss mice [1]; tail flick, compared with morphine and Leu-enkephalin): greater than morphine and similar to Leu-enkephalin | time from which there was no significant difference from Leu-enkephalin (peptide positive control) (Swiss mice [1]; tail-flick, IP, Leu-enkephalin 19.3 mg/kg, P>0.05): no significant difference throughout the assay | time at which statistically significant antinociceptive action started, in relation to saline (Swiss mice [1]; tail-flick, IP, dose equimolar to morphine 10 mg/kg, test of 240 min): 90 min | time from which there was no significant difference from morphine (positive control) (Swiss mice [1]; tail-flick, IP, morphine 10 mg/kg): 90 min | time up to which the significant antinociceptive action lasted, in relation to saline (Swiss mice [1]; tail-flick, IP, test of 240 min): 240 min | difference between peptide alone and peptide+naloxone (naloxone reversal) (Swiss mice [1]; tail-flick, serial hourly naloxone 4 mg/kg, P<0.001): Except for the time of 30 min, there were significant differences | activity profile of the group given substance+naloxone compared with saline (Swiss mice [1]; tail-flick): no significant differences in activity profile | time from which there were no statistically significant differences from morphine (Swiss mice [2]; hot plate, IP, morphine 10 mg/kg, P>0.05): 60 min | persistence of the significant difference in relation to saline (Swiss mice [2]; hot plate, IP, test of 240 min): at the time of 120 minutes, there was no significant difference | time at which statistically significant antinociceptive activity started, in relation to saline (Swiss mice [2]; hot plate, IP, test of 240 min): 60 min | difference between peptide alone and peptide+naloxone (naloxone reversal) (Swiss mice [2]; hot plate, serial naloxone 4 mg/kg, later discontinued): no significant differences only at 210 minutes and 240 minutes | activity after administration of naloxone was discontinued (Swiss mice [2]; hot plate, substance+naloxone group): returned to action | cumulative effect over time (area below the curve) (Swiss mice [2]; mouse, in vivo): higher cumulative effect similar to morphine and Leu-encefaiina | difference from Leu-enkephalin (Swiss mice [2]; mouse, in vivo): no statistically significant differences

YPFKWGGVPP [SEQ ID NO: 2]
intensity of the major (precursor ion) peak during incubation with the enzyme (trypsin): will reduce its intensity

C=CCN1CC[C@]23c4c5ccc(O)c4O[C@H]2C(=O)CC[C@@]3(O)[C@H]1C5 [naloxone, reference compound]
activity profile of naloxone alone compared with saline (Swiss mice [1]; tail-flick, naloxone 4 mg/kg): no significant differences in activity profile | activity profile of naloxone alone compared with saline (Swiss mice [2]; hot plate, naloxone 4 mg/kg): no significant differences in activity profile

YGGFL [Leu-enkephalin, reference compound]
activity profile of the group given substance+naloxone compared with saline (Swiss mice [1]; tail-flick): no significant differences in activity profile | activity after administration of naloxone was discontinued (Swiss mice [2]; mouse, in vivo): activity has also been resumed | activity profile of the group given substance+naloxone compared with saline (Swiss mice [2]; mouse, in vivo): no significant differences in activity profile
